{"source": "ChEMBL document CHEMBL1201862", "about": "“PubChem BioAssay data set” (2004)", "key": {"[1]": {"experiment": "viability of PTEN-deleted HCT116 cells – cell-based, HCT116 PTEN knockout, dose response (AID 1047);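 note: cells exposed to compound for 60 hours before readout; potency for loss of cell viability measured by luminescence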", "type": "functional"}, "Estrogen receptor beta": {"biological_target": "Estrogen receptor beta (Homo sapiens, UniProt Q92731)", "sequence (Q92731 whole entry)": "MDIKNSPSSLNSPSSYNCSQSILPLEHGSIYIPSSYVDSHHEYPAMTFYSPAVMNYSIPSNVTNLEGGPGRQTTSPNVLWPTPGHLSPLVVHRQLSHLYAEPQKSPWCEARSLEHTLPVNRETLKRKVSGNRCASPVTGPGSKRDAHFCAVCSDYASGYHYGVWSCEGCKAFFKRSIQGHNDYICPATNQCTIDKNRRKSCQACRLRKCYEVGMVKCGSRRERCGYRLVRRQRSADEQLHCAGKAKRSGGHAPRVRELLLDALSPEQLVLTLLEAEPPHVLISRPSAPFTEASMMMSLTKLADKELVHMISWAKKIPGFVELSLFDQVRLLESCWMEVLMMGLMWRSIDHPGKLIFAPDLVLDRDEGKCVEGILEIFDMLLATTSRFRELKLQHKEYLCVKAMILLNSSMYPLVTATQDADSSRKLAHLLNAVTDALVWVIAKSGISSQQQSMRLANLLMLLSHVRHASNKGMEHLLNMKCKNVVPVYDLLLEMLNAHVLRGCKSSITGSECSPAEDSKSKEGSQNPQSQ", "experiment": "blockers of SRC-3 recruitment to ERβ – biochemical, ELISA, streptavidin-HRP readout, orthogonal assay, confirmation (AID 1060)"}, "[2]": {"experiment": "viability of HCT116 lacking mutant beta-catenin – cell-based, human colon tumor, dose response (AID 1045);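 note: cells exposed to compound for 60 hours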", "type": "functional"}, "cells [3]": {"experiment": "cells", "type": "functional"}, "Cytochrome P450 3A4": {"biological_target": "Cytochrome P450 3A4 (Homo sapiens, UniProt P08684)", "sequence (P08684 whole entry)": "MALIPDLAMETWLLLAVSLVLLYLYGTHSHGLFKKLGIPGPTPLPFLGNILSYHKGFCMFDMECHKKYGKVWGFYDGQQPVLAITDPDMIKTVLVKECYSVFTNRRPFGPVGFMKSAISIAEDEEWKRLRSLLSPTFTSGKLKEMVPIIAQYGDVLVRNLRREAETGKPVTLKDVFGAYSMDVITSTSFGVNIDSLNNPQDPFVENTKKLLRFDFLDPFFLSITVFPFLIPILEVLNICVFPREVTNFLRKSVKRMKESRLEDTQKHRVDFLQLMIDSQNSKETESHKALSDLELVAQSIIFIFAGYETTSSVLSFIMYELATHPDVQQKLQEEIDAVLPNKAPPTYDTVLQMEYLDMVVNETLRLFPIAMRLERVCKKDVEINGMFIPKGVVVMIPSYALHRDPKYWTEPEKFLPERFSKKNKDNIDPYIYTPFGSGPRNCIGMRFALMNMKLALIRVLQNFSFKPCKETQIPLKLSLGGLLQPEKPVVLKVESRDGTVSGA"}, "Cytochrome P450 2C9": {"biological_target": "Cytochrome P450 2C9 (Homo sapiens, UniProt P11712)", "sequence (P11712 whole entry)": "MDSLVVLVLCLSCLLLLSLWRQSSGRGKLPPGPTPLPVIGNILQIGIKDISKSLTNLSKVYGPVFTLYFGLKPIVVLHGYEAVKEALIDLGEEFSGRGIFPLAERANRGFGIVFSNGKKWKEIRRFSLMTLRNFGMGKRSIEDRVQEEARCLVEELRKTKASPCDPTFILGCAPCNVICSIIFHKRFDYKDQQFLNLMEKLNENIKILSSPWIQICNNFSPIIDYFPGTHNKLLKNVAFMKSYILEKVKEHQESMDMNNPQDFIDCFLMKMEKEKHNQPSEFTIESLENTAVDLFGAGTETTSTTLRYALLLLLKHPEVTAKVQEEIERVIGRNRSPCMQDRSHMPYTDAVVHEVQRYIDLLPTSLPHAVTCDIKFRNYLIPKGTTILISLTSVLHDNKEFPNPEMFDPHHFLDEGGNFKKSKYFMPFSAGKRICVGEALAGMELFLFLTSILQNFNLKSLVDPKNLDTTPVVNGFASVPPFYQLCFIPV"}, "[4]": {"experiment": "intracellular Trypanosoma cruzi inhibitors in host cells – cell-based, plate reader, cherry-pick samples, set 3, dose response (AID 651818);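 note: compounds incubated with infected cells for about four days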", "type": "functional"}, "Cytochrome P450 2C19": {"biological_target": "Cytochrome P450 2C19 (Homo sapiens, UniProt P33261)", "sequence (P33261 whole entry)": "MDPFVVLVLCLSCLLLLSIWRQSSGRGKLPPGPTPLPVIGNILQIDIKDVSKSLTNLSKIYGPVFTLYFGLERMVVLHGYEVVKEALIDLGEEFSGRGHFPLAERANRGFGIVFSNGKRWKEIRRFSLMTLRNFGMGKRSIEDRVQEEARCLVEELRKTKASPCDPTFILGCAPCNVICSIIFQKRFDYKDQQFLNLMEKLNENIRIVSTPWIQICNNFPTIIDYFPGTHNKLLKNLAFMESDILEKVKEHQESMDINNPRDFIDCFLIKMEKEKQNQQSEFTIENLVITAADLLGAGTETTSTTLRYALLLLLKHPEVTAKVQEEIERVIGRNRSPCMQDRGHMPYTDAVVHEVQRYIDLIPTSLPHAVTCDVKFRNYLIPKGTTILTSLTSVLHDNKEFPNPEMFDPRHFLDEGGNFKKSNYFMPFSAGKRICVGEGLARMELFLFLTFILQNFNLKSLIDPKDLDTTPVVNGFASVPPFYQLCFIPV", "experiment": "Cytochrome panel assay with activity outcomes. Panel member name: p450-cyp2c19 Compounds with AC50 equal or less than 10 uM are considered active", "type": "functional", "settings": "read-out: AC50"}, "[5]": {"biological_target": "T1, DNA repair protein RAD52 homolog (Homo sapiens, UniProt P43351)", "T1 sequence (P43351 whole entry)": "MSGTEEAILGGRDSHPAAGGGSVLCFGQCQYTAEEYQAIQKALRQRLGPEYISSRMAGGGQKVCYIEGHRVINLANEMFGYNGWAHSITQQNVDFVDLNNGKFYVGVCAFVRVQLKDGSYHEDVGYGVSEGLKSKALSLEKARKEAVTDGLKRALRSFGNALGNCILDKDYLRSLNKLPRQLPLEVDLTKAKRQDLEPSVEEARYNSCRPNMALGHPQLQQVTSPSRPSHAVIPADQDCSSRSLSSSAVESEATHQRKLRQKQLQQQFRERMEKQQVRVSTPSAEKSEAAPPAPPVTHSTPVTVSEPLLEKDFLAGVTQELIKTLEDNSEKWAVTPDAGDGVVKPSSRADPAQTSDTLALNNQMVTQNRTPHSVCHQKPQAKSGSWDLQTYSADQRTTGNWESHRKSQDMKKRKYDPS", "type": "functional, biochemical"}, "[6]": {"experiment": "growth inhibition of yeast DHODH-expressing 3D7 parasites – SYBR Green, dry powder samples, dose response (AID 1159570);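 note: parasite growth measured after 72 hours of compound exposure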", "type": "functional, cell-based"}, "[7]": {"experiment": "growth inhibition of PfATP4-mutant resistant parasites – NITD609-resistant line, SYBR Green, dry powder, dose response (AID 1159571);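 note: parasites synchronized at ring stage by sorbitol before testing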", "type": "functional, cell-based"}, "[8]": {"experiment": "Dd2 malaria parasite growth inhibition potency – SYBR Green, dry powder samples, dose response (AID 1159566);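 note: potency for growth inhibition with lower SYBR green DNA signal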", "type": "functional, cell-based"}, "[9]": {"experiment": "toxicity to human HepG2 hepatoma cells – cell-based, plate reader, dry powder samples, cytotoxicity control, dose response (AID 1159569);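 note: inhibitor potency with signal falling toward the positive control level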", "type": "functional"}, "[10]": {"experiment": "P. falciparum Dd2 growth inhibitors, dose response, SYBR Green, cherry-picked samples (AID 1159567)", "type": "functional, cell-based"}, "[11]": {"experiment": "toxicity to human hepatoma HepG2 cells – cell-based, cherry-picked samples, cytotoxicity control, dose response (AID 1159577)", "type": "functional"}, "cells [12]": {"experiment": "cells"}, "[13]": {"biological_target": "T2, Zinc finger protein mex-5 (Caenorhabditis elegans, UniProt Q9XUB2)", "T2 sequence (Q9XUB2 whole entry)": "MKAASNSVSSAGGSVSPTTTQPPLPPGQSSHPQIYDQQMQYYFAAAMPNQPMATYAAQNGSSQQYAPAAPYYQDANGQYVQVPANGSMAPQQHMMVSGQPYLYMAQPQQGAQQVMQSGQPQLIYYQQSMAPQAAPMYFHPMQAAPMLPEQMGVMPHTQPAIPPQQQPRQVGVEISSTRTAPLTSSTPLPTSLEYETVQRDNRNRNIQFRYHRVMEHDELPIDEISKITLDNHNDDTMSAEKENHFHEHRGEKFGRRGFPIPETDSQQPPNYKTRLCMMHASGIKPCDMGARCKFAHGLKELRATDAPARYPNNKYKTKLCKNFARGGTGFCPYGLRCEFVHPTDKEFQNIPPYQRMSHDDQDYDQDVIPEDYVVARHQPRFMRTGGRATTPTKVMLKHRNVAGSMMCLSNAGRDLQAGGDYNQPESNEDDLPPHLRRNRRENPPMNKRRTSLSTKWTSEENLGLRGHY", "experiment": "potency of MEX-5 RNA-binding blockers – biochemical, C. elegans, fluorescence polarization, dose response (AID 1960)"}, "[14]": {"biological_target": "T3, RNA-binding protein pos-1 (Caenorhabditis elegans, UniProt G5EF15)", "T3 sequence (G5EF15 whole entry)": "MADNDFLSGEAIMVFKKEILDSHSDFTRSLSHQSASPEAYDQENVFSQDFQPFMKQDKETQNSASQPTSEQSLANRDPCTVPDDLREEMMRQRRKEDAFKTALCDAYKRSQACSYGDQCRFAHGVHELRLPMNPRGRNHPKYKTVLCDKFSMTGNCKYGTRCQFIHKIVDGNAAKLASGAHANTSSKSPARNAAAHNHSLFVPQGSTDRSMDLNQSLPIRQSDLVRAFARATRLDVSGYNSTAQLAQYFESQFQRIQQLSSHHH", "experiment": "disruptors of C. elegans POS-1 RNA interaction – biochemical, fluorescence polarization, dose response (AID 1964);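 note: purified POS-1 fused to maltose binding protein made in E. coli; potency of compounds blocking POS-1 binding to fluorescent RNA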"}}, "note": "Calls of active or inactive are those of the source."}
{"smiles": "OC(COc1ccc(C2C=CCC2)cc1)CN1CCCCC1", "note": "(stereo not given)", "values": [{"measurement": "EC50", "setting": "[1]", "result": "40.2 µM (active)"}, {"measurement": "IC50", "setting": "Estrogen receptor beta", "result": "13.1 µM (not active)"}, {"measurement": "EC50", "setting": "[2]", "result": "32 µM (active)"}]}
{"smiles": "CSc1ccccc1NC(=O)c1cc(C(C)C)on1", "values": [{"measurement": "IC50", "setting": "cells [3]", "result": "27.9 µM (active)"}]}
{"smiles": "O=C(N/N=C/c1cccc(F)c1)c1csc2c1CCCC2", "values": [{"measurement": "AC50", "setting": "Cytochrome P450 3A4", "result": "15.8 µM (inconclusive)"}, {"measurement": "AC50", "setting": "Cytochrome P450 2C9", "result": "inconclusive"}]}
{"smiles": "C[C@H](CO)N1C[C@H](C)[C@H](CN(C)C(=O)Nc2cccc3ccccc23)Oc2c(NC(=O)Nc3ccc(C(F)(F)F)cc3)cccc2C1=O", "values": [{"measurement": "AC50", "setting": "[4]", "result": "6.42 µM (active)"}]}
{"smiles": "O=C(c1ccccc1)N(Cc1ccco1)C1CCS(=O)(=O)C1", "note": "(stereo not given)", "values": [{"measurement": "AC50", "setting": "Cytochrome P450 2C9", "result": "inconclusive"}, {"measurement": "AC50", "setting": "Cytochrome P450 2C19", "result": "31.6 µM (inconclusive)"}]}
{"smiles": "C1CCCCCC(NCCN2CCNCC2)CCCCC1", "values": [{"measurement": "AC50", "setting": "[5]", "result": "23.1 µM (active)"}]}
{"smiles": "COc1cc(C(=O)NCCC(C)C)c([N+](=O)[O-])cc1OC", "values": [{"measurement": "AC50", "setting": "Cytochrome P450 2C9", "result": "inconclusive"}]}
{"smiles": "C/C=C/c1ccc([C@H]2[C@@H]3CN(C(=O)Nc4ccc(C(F)(F)F)cc4)C[C@H]2N3)cc1", "values": [{"measurement": "AC50", "setting": "[6]", "result": "4.43 µM (active)"}, {"measurement": "AC50", "setting": "[7]", "result": "4.31 µM (active)"}, {"measurement": "AC50", "setting": "[8]", "result": "5.42 µM (active)"}, {"measurement": "AC50", "setting": "[9]", "result": "25.8 µM (active)"}, {"measurement": "AC50", "setting": "[10]", "result": "3.42 µM (active)"}, {"measurement": "AC50", "setting": "[11]", "result": "25.2 µM (active)"}]}
{"smiles": "CC(CC(=O)c1ccc(F)cc1)N1CCN(c2ccccc2)CC1", "note": "(stereo not given)", "values": [{"measurement": "AC50", "setting": "[5]", "result": "34.3 µM (active)"}]}
{"smiles": "C[C@@H]1CN([C@H](C)CO)C(=O)Cc2cc(NC(=O)Cc3cn(C)c4ccccc34)ccc2O[C@H]1CN(C)Cc1ccc(-c2ccccc2)cc1", "values": [{"measurement": "AC50", "setting": "[4]", "result": "4.23 µM (active)"}]}
{"smiles": "Cc1ccc(-c2ccc([C@@H]3[C@@H]4CN(Cc5cccnc5)C[C@H]3N4)cc2)cc1", "values": [{"measurement": "AC50", "setting": "[10]", "result": "0.457 µM (active)"}, {"measurement": "AC50", "setting": "[11]", "result": "9.99 µM (active)"}]}
{"smiles": "O=C(Nc1nnc(-c2ccc(Br)cc2)o1)C1=COCCO1", "values": [{"measurement": "IC50", "setting": "cells [3]", "result": "5.97 µM (active)"}]}
{"smiles": "CCCC(=O)Nc1ccc(-c2nc3cc(C)c(C)cc3o2)cc1", "values": [{"measurement": "IC50", "setting": "cells [12]", "result": "48.2 µM (active)"}]}
{"smiles": "CSCCOC(=O)COc1ccc(/C=N/NC(=O)c2c(Cl)cnn2C)cc1", "values": [{"measurement": "IC50", "setting": "cells [3]", "result": "4.7 µM (active)"}]}
{"smiles": "COc1ccc2c3c(n(C)c2c1)[C@@H](CO)N(Cc1ccccc1OC)CC31CCN(CC2CC2)CC1", "values": [{"measurement": "AC50", "setting": "[6]", "result": "2.52 µM (active)"}, {"measurement": "AC50", "setting": "[7]", "result": "1.07 µM (active)"}, {"measurement": "AC50", "setting": "[8]", "result": "0.522 µM (active)"}, {"measurement": "AC50", "setting": "[9]", "result": "34.5 µM (active)"}, {"measurement": "AC50", "setting": "[10]", "result": "1.29 µM (active)"}, {"measurement": "AC50", "setting": "[11]", "result": "> 39 µM (inactive)"}]}
{"smiles": "COc1ccc(C(=O)N2CC(c3ccc(Cl)cc3)CC2=O)cc1", "note": "(stereo not given)", "values": [{"measurement": "IC50", "setting": "cells [12]", "result": "31.5 µM (active)"}]}
{"smiles": "C[C@H](CO)N1C[C@H](C)[C@H](CN(C)C(=O)Nc2ccc(F)cc2)Oc2c(NC(=O)Nc3cccc4ccccc34)cccc2C1=O", "values": [{"measurement": "AC50", "setting": "[4]", "result": "1.79 µM (active)"}]}
{"smiles": "CC(=N)/C(C#N)=C(/O)CSc1ncnc2ccccc12", "values": [{"measurement": "EC50", "setting": "[13]", "result": "8.02 µM (active)"}, {"measurement": "IC50", "setting": "cells [12]", "result": "17.9 µM (active)"}, {"measurement": "EC50", "setting": "[14]", "result": "> 300 µM (not active)"}]}
